Results taken from the supplement of paper PMC8671470.

system: myeloid leukemia patient primary cells Pat.13; assay: cell viability (% survival relative to DMSO control); higher = less cytotoxic; conditions: 1000 nM; 72 h
Outline: (§1)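 Thawed mononuclear cells from AML or CML patients were purified on Ficoll and cultured for 72 h in RPMI 1640 with 10% FBS, at 10,000 cells/well, on 384-well plates carrying 70 pre-printed compounds at 1–10,000 nM in five tenfold steps, in duplicate. Viability came from CellTiter-Glo, normalised against DMSO and against 10 μM proteasome inhibitor. Any area under the curve given was derived from log-logistic curve fits in the drc and PharmacoGx R packages, and these fits had four parameters.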

Compared with `Cc1c(-c2ccc(-c3ccccc3F)cc2)nc2ccc(F)cc2c1C(=O)O` [Brequinar], `CCC(=O)N1CCN(c2ccc(-n3c(=O)ccc4cnc5ccc(-c6cnc7ccccc7c6)cc5c43)cc2C(F)(F)F)CC1` [Torin1] is lower in cell viability: 94.2% for the first, 43% for the second.

Going from `Nc1nc(Cl)nc2c1ncn2[C@H]1C[C@H](O)[C@@H](CO)O1` [Cladribine] to `Oc1ccc(Nc2nc(-c3ccc(Cl)cc3)cs2)cc1` [SKI II], the cell viability rises from 4.44% to 92.9%.

First: O=C1c2cc([N+](=O)[O-])ccc2-n2c1nc1ccccc1c2=O [GNF-Pf-3777]
Second: C=C(C)[C@H]1Cc2c(ccc3c2O[C@@H]2COc4cc(OC)c(OC)cc4[C@@H]2C3=O)O1 [Rotenone]
The cell viability of the first is higher: 80.8% for the first, 17.2% for the second.

same assay, conditions: 10000 nM; 72 h

Going from `O=C(C1CC1)N1CC[C@@H](C=C2NNC(=O)N2c2ccc(-c3ccc4occc4c3)cc2)C1` to `CCC(=O)N1CCN(c2ccc(-n3c(=O)ccc4cnc5ccc(-c6cnc7ccccc7c6)cc5c43)cc2C(F)(F)F)CC1` [Torin1], the cell viability falls from 80.1% to 51%.

Compared with `C[C@H](NC(=O)c1sccc1OCc1ccc(Cl)cc1)c1ccccc1`, `Oc1ccc(Nc2nc(-c3ccc(Cl)cc3)cs2)cc1` [SKI II] is lower in cell viability: 43.4% for the first, 32.9% for the second.

Going from `O=C(O)C1=CC(=C(c2ccc(O)c(C(=O)O)c2)c2ccc(O)c(C(=O)O)c2)C=CC1=O` [Aurintricarboxylic acid] to `Cc1c(-c2ccc(-c3ccccc3F)cc2)nc2ccc(F)cc2c1C(=O)O` [Brequinar], the cell viability falls from 93.4% to 84.6%.

Going from `COC(=O)[C@]12CCC(C)(C)C[C@H]1[C@H]1C(=O)C=C3[C@@]4(C)C=C(C#N)C(=O)C(C)(C)[C@@H]4CC[C@@]3(C)[C@]1(C)CC2` [Bardoxolone methyl] to `C=C(C)[C@H]1Cc2c(ccc3c2O[C@@H]2COc4cc(OC)c(OC)cc4[C@@H]2C3=O)O1` [Rotenone], the cell viability falls from 31.2% to 11.9%.

Going from `Nc1nc(Cl)nc2c1ncn2[C@H]1C[C@H](O)[C@@H](CO)O1` [Cladribine] to `O=C1c2cc([N+](=O)[O-])ccc2-n2c1nc1ccccc1c2=O` [GNF-Pf-3777], the cell viability rises from 4.27% to 35.8%.

system: myeloid leukemia patient primary cells Pat.14; assay: as above; conditions: 1 nM; 72 h
Outline: as §1

Going from `O=C(C1CC1)N1CC[C@@H](C=C2NNC(=O)N2c2ccc(-c3ccc4occc4c3)cc2)C1` to `CCC(=O)N1CCN(c2ccc(-n3c(=O)ccc4cnc5ccc(-c6cnc7ccccc7c6)cc5c43)cc2C(F)(F)F)CC1` [Torin1], the cell viability falls from 92.5% to 77.2%.

Going from `C[C@H](NC(=O)c1sccc1OCc1ccc(Cl)cc1)c1ccccc1` to `Oc1ccc(Nc2nc(-c3ccc(Cl)cc3)cs2)cc1` [SKI II], the cell viability falls from 88.5% to 58.3%.

Compared with `O=C(O)C1=CC(=C(c2ccc(O)c(C(=O)O)c2)c2ccc(O)c(C(=O)O)c2)C=CC1=O` [Aurintricarboxylic acid], `Cc1c(-c2ccc(-c3ccccc3F)cc2)nc2ccc(F)cc2c1C(=O)O` [Brequinar] is lower in cell viability: 92.5% for the first, 89.4% for the second.

Going from `COC(=O)[C@]12CCC(C)(C)C[C@H]1[C@H]1C(=O)C=C3[C@@]4(C)C=C(C#N)C(=O)C(C)(C)[C@@H]4CC[C@@]3(C)[C@]1(C)CC2` [Bardoxolone methyl] to `C=C(C)[C@H]1Cc2c(ccc3c2O[C@@H]2COc4cc(OC)c(OC)cc4[C@@H]2C3=O)O1` [Rotenone], the cell viability falls from 73.4% to 30.2%.

Compared with `Nc1nc(Cl)nc2c1ncn2[C@H]1C[C@H](O)[C@@H](CO)O1` [Cladribine], `O=C1c2cc([N+](=O)[O-])ccc2-n2c1nc1ccccc1c2=O` [GNF-Pf-3777] is higher in cell viability: 90.7% for the first, 96.8% for the second.

same assay, conditions: 10 nM; 72 h

First: O=C(C1CC1)N1CC[C@@H](C=C2NNC(=O)N2c2ccc(-c3ccc4occc4c3)cc2)C1
Second: CCC(=O)N1CCN(c2ccc(-n3c(=O)ccc4cnc5ccc(-c6cnc7ccccc7c6)cc5c43)cc2C(F)(F)F)CC1 [Torin1]
The cell viability of the first is higher: 91.4% for the first, 82.1% for the second.

First: C[C@H](NC(=O)c1sccc1OCc1ccc(Cl)cc1)c1ccccc1
Second: Oc1ccc(Nc2nc(-c3ccc(Cl)cc3)cs2)cc1 [SKI II]
The cell viability of the first is lower: 88% for the first, 97.8% for the second.

Going from `O=C(O)C1=CC(=C(c2ccc(O)c(C(=O)O)c2)c2ccc(O)c(C(=O)O)c2)C=CC1=O` [Aurintricarboxylic acid] to `Cc1c(-c2ccc(-c3ccccc3F)cc2)nc2ccc(F)cc2c1C(=O)O` [Brequinar], the cell viability falls from greater than 100% to 81.1%.

Compared with `COC(=O)[C@]12CCC(C)(C)C[C@H]1[C@H]1C(=O)C=C3[C@@]4(C)C=C(C#N)C(=O)C(C)(C)[C@@H]4CC[C@@]3(C)[C@]1(C)CC2` [Bardoxolone methyl], `C=C(C)[C@H]1Cc2c(ccc3c2O[C@@H]2COc4cc(OC)c(OC)cc4[C@@H]2C3=O)O1` [Rotenone] is lower in cell viability: 72.5% for the first, 71% for the second.

Going from `Nc1nc(Cl)nc2c1ncn2[C@H]1C[C@H](O)[C@@H](CO)O1` [Cladribine] to `O=C1c2cc([N+](=O)[O-])ccc2-n2c1nc1ccccc1c2=O` [GNF-Pf-3777], the cell viability rises from 75.3% to 95%.

same assay, conditions: 100 nM; 72 h

First: O=C(C1CC1)N1CC[C@@H](C=C2NNC(=O)N2c2ccc(-c3ccc4occc4c3)cc2)C1
Second: CCC(=O)N1CCN(c2ccc(-n3c(=O)ccc4cnc5ccc(-c6cnc7ccccc7c6)cc5c43)cc2C(F)(F)F)CC1 [Torin1]
The cell viability of the first is higher: 96.2% for the first, 74.3% for the second.

First: C[C@H](NC(=O)c1sccc1OCc1ccc(Cl)cc1)c1ccccc1
Second: Oc1ccc(Nc2nc(-c3ccc(Cl)cc3)cs2)cc1 [SKI II]
The cell viability of the first is higher: 99.3% for the first, 69.4% for the second.

Compared with `O=C(O)C1=CC(=C(c2ccc(O)c(C(=O)O)c2)c2ccc(O)c(C(=O)O)c2)C=CC1=O` [Aurintricarboxylic acid], `Cc1c(-c2ccc(-c3ccccc3F)cc2)nc2ccc(F)cc2c1C(=O)O` [Brequinar] is lower in cell viability: 98.6% for the first, 73.4% for the second.

Compared with `COC(=O)[C@]12CCC(C)(C)C[C@H]1[C@H]1C(=O)C=C3[C@@]4(C)C=C(C#N)C(=O)C(C)(C)[C@@H]4CC[C@@]3(C)[C@]1(C)CC2` [Bardoxolone methyl], `C=C(C)[C@H]1Cc2c(ccc3c2O[C@@H]2COc4cc(OC)c(OC)cc4[C@@H]2C3=O)O1` [Rotenone] is higher in cell viability: 47% for the first, 50% for the second.

Going from `Nc1nc(Cl)nc2c1ncn2[C@H]1C[C@H](O)[C@@H](CO)O1` [Cladribine] to `O=C1c2cc([N+](=O)[O-])ccc2-n2c1nc1ccccc1c2=O` [GNF-Pf-3777], the cell viability rises from 17.3% to 96.8%.

same assay, conditions: 1000 nM; 72 h

Compared with `O=C(C1CC1)N1CC[C@@H](C=C2NNC(=O)N2c2ccc(-c3ccc4occc4c3)cc2)C1`, `C[C@H](NC(=O)c1sccc1OCc1ccc(Cl)cc1)c1ccccc1` is higher in cell viability: 77.3% for the first, 99.3% for the second.
